{"source": "patent US6572788B2", "about": "“Amine oxide wood preservatives” (Lonza, Inc., priority 2000, dated 2003); as to Rating of treated tulip sections vs. Time: key: 4 - Clean with no visible stain or mold; 3 - Trace amount of white/black fungal growth; 2 - Black and/or white fungal growth visible on all faces and ends; 1 - Heavy fungal growth", "key": {"stains, molds, and fungi [1]": {"system": "stains, molds, and fungi", "test": "Wood preserving efficacy on freshly cut white birch wood (dip treatment, sealed bag); also: key: 4 - Clean with no visible stain or mold; 3 - Trace amount of white/black fungal growth; 2 - Black and/or white fungal growth visible on all faces and ends; 1 - Heavy fungal growth", "design": "scale not given here", "procedure": "The wood preserving efficacy of each aqueous test solution in Table 1 below was tested on freshly cut white birch wood as follows. All percentages in Table 1 are by weight. A branch of white birch tree measuring about 3 inches in diameter was cut into pieces about 6 inch in length. Each piece was then split into 4 sections. Each section was dipped into the test solution for about 1 minute and blotted with a paper towel to remove excess liquid. The sections were sealed in a clear plastic bag and stored at ambient conditions. The sections were observed after 1, 3, 7, and 12 weeks for the growth of stains, molds, and fungi. The aqueous test solutions were prepared by mixing the active ingredient with water."}, "[2]": {"system": "P. placenta (brown rot fungi)", "test": "Agar dilution plate method, wood rot fungi", "format": "cell-based", "conditions": "P. placenta, 100% growth retardation, Table 14", "procedure": "(§1) The efficacy of the aqueous amine oxide solutions in Table 14 at various concentrations against the wood rot fungi T. versicolor (white rot fungi), G. trabeum (brown rot fungi), P. placenta (brown rot fungi), and C. globosum (soft rot decay fungi) were determined using the agar dilution plate method well known in the art. […] The percent retardation of the fungi was determined by the percentage change in the diameter of the fungi on the agar plate (i.e. Percent Retardation=((Diameter of Control)−(Diameter of Treated Fungi))/(Diameter of Control)*100%)."}, "[3]": {"system": "T. versicolor (white rot fungi)", "test": "Agar dilution plate method, wood rot fungi", "format": "cell-based", "conditions": "T. versicolor, 100% growth retardation, Table 14", "procedure": "as §1"}, "[4]": {"system": "C. globosum (soft rot decay fungi)", "test": "Agar dilution plate method, wood rot fungi", "format": "cell-based", "conditions": "C. globosum, 100% growth retardation, Table 14", "procedure": "as §1"}, "[5]": {"system": "G. trabeum (brown rot fungi)", "test": "Agar dilution plate method, wood rot fungi", "format": "cell-based", "conditions": "G. trabeum, 100% growth retardation, Table 14", "procedure": "as §1"}, "[6]": {"system": "Lentinus lepideus (L. lepideus), a brown rot fungus", "test": "Agar plate method, fungus growth inhibition", "format": "cell-based", "procedure": "(§2) The efficacy of aqueous solutions of amine oxides and didecyldimethyl ammonium chloride to inhibit fungus growth was evaluated by the agar plate method known in the art. […] The fungi tested were Trametes versicolor (T. versicolor), a white rot fungus; Gloeophyllum trabeum (G. trabeum), a brown rot fungus which is tolerant of arsenic and phenolic type wood preservatives; Poria placenta (P. placenta), a brown rot fungus which is tolerant to copper in wood preservatives; Lentinus lepideus (L. lepideus), a brown rot fungus which is tolerant to creosote; Coniophora puteana (C. puteana), a brown rot fungus; and Chaetomium globsum (C. globsum), a soft rot fungus."}, "[7]": {"system": "Chaetomium globsum (C. globsum), a soft rot fungus", "test": "Agar plate method, fungus growth inhibition", "format": "cell-based", "procedure": "as §2"}, "[8]": {"system": "Trametes versicolor (T. versicolor), a white rot fungus", "test": "Agar plate method, fungus growth inhibition", "format": "cell-based", "conditions": "50% retardation of growth", "procedure": "as §2"}, "[9]": {"system": "Poria placenta (P. placenta), a brown rot fungus", "test": "Agar plate method, fungus growth inhibition", "format": "cell-based", "procedure": "as §2"}, "[10]": {"system": "Gloeophyllum trabeum (G. trabeum), a brown rot fungus", "test": "Agar plate method, fungus growth inhibition", "format": "cell-based", "procedure": "as §2"}, "[11]": {"system": "Coniophora puteana (C. puteana), a brown rot fungus", "test": "Agar plate method, fungus growth inhibition", "format": "cell-based", "procedure": "as §2"}, "stains, molds, and fungi [12]": {"system": "stains, molds, and fungi", "test": "Wood preserving efficacy on freshly cut beech wood (dip treatment)", "conditions": "beech wood pieces (Example 15)", "procedure": "The wood preserving efficacy of each aqueous test solution in Table 18 below was tested on freshly cut beech wood (Fagus grandifolia Ehrh.) as follows. All percentages in Table 18 are by weight. A 1″ branch of a beech tree was split into two pieces. The bark was left on the pieces. Each piece was dipped into the test solution for about 1 minute and blotted with a paper towel to remove excess liquid. […] The aqueous test solutions were prepared by mixing the active ingredient with water."}, "stains, molds, and fungi [13]": {"system": "stains, molds, and fungi", "test": "Wood preserving efficacy on freshly cut tulip wood (dip treatment)", "procedure": "The wood preserving efficacy of each aqueous test solution in Table 17 below was tested on freshly cut tulip wood (also known as Tulip-Popular, Yellow Popular, and Liriodendron tulipfera L.) as follows. All percentages in Table 17 are by weight. Pieces of tulip wood cut from a 4″ debarked branch were cut into pieces. Each piece was then split into 4 sections. Each section was dipped into the test solution for about 1 minute and blotted with a paper towel to remove excess liquid. The sections were sealed in a clear plastic bag and stored at ambient conditions. The sections were observed after 1, 3, 7, and 11 weeks for the growth of stains, molds, and fungi. The aqueous test solutions were prepared by mixing the active ingredient with water."}, "Decay": {"system": "Decay", "test": "Field stake test (AWPA E7), southern yellow pine stakes in ground: decay", "conditions": "10 stakes, 10 = all stakes intact and free of decay, 0 = completely decayed", "procedure": "(§3) 40″ by ¾″ by ¾″ pieces of southern yellow pine lumber were treated with the aqueous solution prepared in Example 1 according to the procedure described in the American Wood Preservers' Association test method E7, which is hereby incorporated by reference. The procedure is generally as follows. The southern yellow pine lumber pieces were placed in a pressure treating cylinder for about 30 minutes at about −90 kPa, injected with the aqueous solution, and pressurized to about 800 kPa for about 30 minutes. The pressure was released by the addition of air and the solution was drained.\n(§4) This procedure was repeated with aqueous solutions containing 0.5 or 1.0% by weight of copper chromium arsenate (CCA) and aqueous solutions containing 0.5, 1.0, or 1.5% by weight of didecyl dimethyl ammonium chloride (DDAC).\n(§5) After 11 months, the stakes were observed."}, "stains, molds, and fungi [14]": {"system": "stains, molds, and fungi", "test": "Wood preserving efficacy on freshly cut green chestnut oak (dip treatment)", "design": "scale not given here"}, "Termite": {"system": "Termite", "test": "Field stake test (AWPA E7), southern yellow pine stakes in ground: termite attack", "conditions": "10 stakes, 10 = free of termite attack, 0 = completely attacked", "procedure": "as §3, §4, §5"}, "[15]": {"conditions": "Field Site A, listed as 0.5% (w/w) DDAC"}, "[16]": {"conditions": "Field Site A, listed as 1.0% (w/w) DDAC"}, "[17]": {"conditions": "Field Site A, listed as […] (w/w) DDAC"}}, "data": [{"compound": "CCCCCCCCCCCCCCCC[N+](C)(C)[O-]", "note": "[Hexadecyl dimethylamine oxide, hexadecyl dimethylamine oxide]", "values": [{"measurement": "Rating of treated white birch sections vs. Time", "setting": "stains, molds, and fungi [1]; 1 week", "result": 3}, {"measurement": "Rating of treated white birch sections vs. Time", "setting": "stains, molds, and fungi [1]; 3 weeks", "result": 2}, {"measurement": "Rating of treated white birch sections vs. Time", "setting": "stains, molds, and fungi [1]; 7 weeks", "result": 2}, {"measurement": "Rating of treated white birch sections vs. Time", "setting": "stains, molds, and fungi [1]; 12 weeks", "result": 2}, {"measurement": "MIC", "setting": "[2]; read-out: MIC (ppm of amine oxides)", "result": "> 1000", "unit": "µg/mL"}, {"measurement": "MIC", "setting": "[3]; Trametes versicolor, read-out: MIC (ppm of amine oxides)", "result": "> 1000", "unit": "µg/mL"}, {"measurement": "MIC", "setting": "[4]; Chaetomium globosum, read-out: MIC (ppm of amine oxides)", "result": "> 1000", "unit": "µg/mL"}, {"measurement": "MIC", "setting": "[5]; Gloeophyllum trabeum, read-out: MIC (ppm of amine oxides)", "result": "> 1000", "unit": "µg/mL"}, {"measurement": "IC50", "setting": "[6]", "result": 3, "unit": "ppm"}, {"measurement": "IC50", "setting": "[7]", "result": "20-50 ppm"}, {"measurement": "IC50", "setting": "[8]", "result": 30, "unit": "ppm"}, {"measurement": "IC50", "setting": "[9]", "result": "5-25 ppm"}, {"measurement": "IC50", "setting": "[10]", "result": "25-30 ppm"}, {"measurement": "IC50", "setting": "[11]", "result": 80, "unit": "ppm"}]}, {"compound": "CCCCCCCCCC[N+](C)(C)CCCCCCCCCC.[Cl-]", "note": "[Didecyldimethyl ammonium chloride, didecyldimethylammonium chloride, reference compound]", "values": [{"measurement": "Rating of treated white birch sections vs. Time", "setting": "stains, molds, and fungi [1]; 1 week", "result": 4}, {"measurement": "Rating of treated white birch sections vs. Time", "setting": "stains, molds, and fungi [1]; 3 weeks", "result": 4}, {"measurement": "Rating of treated white birch sections vs. Time", "setting": "stains, molds, and fungi [1]; 7 weeks", "result": 3}, {"measurement": "Rating of treated white birch sections vs. Time", "setting": "stains, molds, and fungi [1]; 12 weeks", "result": 3}, {"measurement": "Rating of treated tulip sections vs. Time", "setting": "stains, molds, and fungi [12]; 1 week", "result": 4}, {"measurement": "Rating of treated tulip sections vs. Time", "setting": "stains, molds, and fungi [12]; 3 weeks, listed as 0.32% Didecyldimethyl ammonium chloride", "result": 2}, {"measurement": "Rating of treated tulip sections vs. Time", "setting": "stains, molds, and fungi [12]; 3 weeks, listed as 0.65% Didecyldimethyl ammonium chloride", "result": 3.5}, {"measurement": "Rating of treated tulip sections vs. Time", "setting": "stains, molds, and fungi [12]; 7 weeks", "result": 2}, {"measurement": "Rating of treated tulip sections vs. Time", "setting": "stains, molds, and fungi [12]; 11 weeks", "result": 2}, {"measurement": "Rating of treated tulip sections vs. Time", "setting": "stains, molds, and fungi [13]; 1 week", "result": 4}, {"measurement": "Rating of treated tulip sections vs. Time", "setting": "stains, molds, and fungi [13]; 3 weeks", "result": 4}, {"measurement": "Rating of treated tulip sections vs. Time", "setting": "stains, molds, and fungi [13]; 7 weeks, listed as 0.32% Didecyldimethyl ammonium chloride", "result": 3.5}, {"measurement": "Rating of treated tulip sections vs. Time", "setting": "stains, molds, and fungi [13]; 7 weeks, listed as 0.65% Didecyldimethyl ammonium chloride", "result": 4}, {"measurement": "Rating of treated tulip sections vs. Time", "setting": "stains, molds, and fungi [13]; 11 weeks, listed as 0.32% Didecyldimethyl ammonium chloride", "result": 3.5}, {"measurement": "Rating of treated tulip sections vs. Time", "setting": "stains, molds, and fungi [13]; 11 weeks, listed as 0.65% Didecyldimethyl ammonium chloride", "result": 4}, {"measurement": "Rating after 11 Months, Decay", "setting": "Decay; [15]", "result": "9.9 ± 0.3"}, {"measurement": "Rating after 11 Months, Decay", "setting": "Decay; [16]", "result": 10}, {"measurement": "Rating after 11 Months, Decay", "setting": "Decay; [17]", "result": 10}, {"measurement": "Rating after 11 Months, Decay", "setting": "Decay; Field Site B", "result": 10}, {"measurement": "Rating of treated green chestnut oak sections vs. Time", "setting": "stains, molds, and fungi [14]; 2 weeks", "result": 3}, {"measurement": "Rating of treated green chestnut oak sections vs. Time", "setting": "stains, molds, and fungi [14]; 4 weeks", "result": 2}, {"measurement": "Rating of treated green chestnut oak sections vs. Time", "setting": "stains, molds, and fungi [14]; 5 weeks", "result": 2}, {"measurement": "Rating of treated green chestnut oak sections vs. Time", "setting": "stains, molds, and fungi [14]; 9 weeks", "result": 1}, {"measurement": "Rating after 11 Months, Termite Attack", "setting": "Termite; [15]", "result": "9.3 ± 0.9"}, {"measurement": "Rating after 11 Months, Termite Attack", "setting": "Termite; [16]", "result": "9.9 ± 0.3"}, {"measurement": "Rating after 11 Months, Termite Attack", "setting": "Termite; [17]", "result": "8.9 ± 1.3"}, {"measurement": "Rating after 11 Months, Termite Attack", "setting": "Termite; Field Site B", "result": 10}, {"measurement": "IC50", "setting": "[7]", "result": "10-20 ppm"}, {"measurement": "IC50", "setting": "[8]", "result": "30-50 ppm"}, {"measurement": "IC50", "setting": "[9]", "result": "5-25 ppm"}, {"measurement": "IC50", "setting": "[10]", "result": "10-40 ppm"}]}, {"compound": "Coco-dimethylamine oxide", "values": [{"measurement": "Rating of treated white birch sections vs. Time", "setting": "stains, molds, and fungi [1]; 1 week", "result": 4}, {"measurement": "Rating of treated white birch sections vs. Time", "setting": "stains, molds, and fungi [1]; 3 weeks", "result": 4}, {"measurement": "Rating of treated white birch sections vs. Time", "setting": "stains, molds, and fungi [1]; 7 weeks", "result": 3}, {"measurement": "Rating of treated white birch sections vs. Time", "setting": "stains, molds, and fungi [1]; 12 weeks", "result": 2}, {"measurement": "MIC (ppm of amine oxides)", "setting": "[2]", "result": "500-1000 ppm"}, {"measurement": "MIC (ppm of amine oxides)", "setting": "[3]", "result": 750, "unit": "ppm"}, {"measurement": "MIC (ppm of amine oxides)", "setting": "[4]", "result": ">1000", "unit": "ppm"}, {"measurement": "MIC (ppm of amine oxides)", "setting": "[5]", "result": 500, "unit": "ppm"}, {"measurement": "IC50", "setting": "[6]", "result": 15, "unit": "ppm"}, {"measurement": "IC50", "setting": "[7]", "result": "50-70 ppm"}, {"measurement": "IC50", "setting": "[8]", "result": "40-50 ppm"}, {"measurement": "IC50", "setting": "[9]", "result": "3-7 ppm"}, {"measurement": "IC50", "setting": "[10]", "result": "10-15 ppm"}, {"measurement": "IC50", "setting": "[11]", "result": 80, "unit": "ppm"}]}]}
